Values of other authors, collected in patent US20160338951A1 (Gavis Pharmaceuticals, priority 2015, published 2016).

Conditions: olopatadine by itself, water pH about 7.0, room temperature

Which “soluble in water up to a concentration” value does the source give for `CN(C)CC/C=C1/c2ccccc2COc2ccc(CC(=O)O)cc21` [olopatadine, 11-[(Z)-3(Dimethylamino)propylidene]-6-11dihydrodibenz [b,e] oxepin-2-acetic acid] here?
Its value is “about 0.18 w/v %”.
